Reference: patent publication US20150191469A1, “COMPOUNDS AND METHODS FOR TREATING HIV” (priority 2012, published 2015)

test system: HIV; assay: MT4 assay: antiviral HIV activity (cell protection, cell titer glo readout at 96 hours); format: cell-based; conditions: Human immunodeficiency virus 1, MT4, 96 h, MT4 cells, cell titer glo readout at 96 hours, 10 point dose response; read-out: HIV MT4 Assay IC50
Summary of the method: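 MT-4 cells infected with HIV, with inhibition readout by CellTiter-Glo luminescence at 96 h relative to no-compound control. Cytotoxicity measured in parallel under the same conditions. IC50 from a 10-point, 3-4-fold dilution series spanning >1000-fold, fitted with a four-parameter logistic equation.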

Row | SMILES | IC50
1 | Cc1nc2c(cc(CNC(=O)c3ccc4c(cnn4C)c3)n2C)c(-c2cc(F)c3c(c2C)CCCO3)c1[C@H](OC(C)(C)C)C(=O)O (atropisomer, axis not shown; (M)) [Example 412, (2S)(M)-2-(tert-butoxy)-2-(-4-(8-fluoro-5-methylchroman-6-yl)-1,6-dimethyl-2-((1-methyl-1H-indazole-5-carboxamido)methyl)-1H-pyrrolo[2,3-b]pyridin-5-yl)acetic acid] | 43.1 nM
2 | COCCNC(=O)/C=C/c1cc2c(-c3cc(F)c4c(c3C)CCCO4)c([C@H](OC(C)(C)C)C(=O)O)c(C)nc2n1C (atropisomer, axis not shown; (M)) [Example 413, (2S)(M)-2-(tert-butoxy)-2-(-4-(8-fluoro-5-methylchroman-6-yl)-2-((E)-3-((2-methoxyethyl)amino)-3-oxoprop-1-en-1-yl)-1,6-dimethyl-1H-pyrrolo[2,3-b]pyridin-5-yl)acetic acid] | 148 nM
3 | Cc1nc2c(cc(C(=O)C(=O)NCc3ccccc3)n2C)c(-c2cc(F)c3c(c2C)CCCO3)c1[C@H](OC(C)(C)C)C(=O)O (atropisomer, axis not shown; (M)) [Example 420, (2S)(M)-2-(-2-(2-(benzylamino)-2-oxoacetyl)-4-(8-fluoro-5-methylchroman-6-yl)-1,6-dimethyl-1H-pyrrolo[2,3-b]pyridin-5-yl)-2-(tert-butoxy)acetic acid] | 94.6 nM
4 | Cc1nc2c(cc(-c3nnc(N4C[C@@H](C)O[C@@H](C)C4)o3)n2C)c(-c2cc(F)c3c(c2C)CCCO3)c1[C@H](OC(C)(C)C)C(=O)O (racemic) [Example 338] | 1.6 nM
5 | Cc1nc2c(cc(-c3cc(N4C[C@@H](C)O[C@@H](C)C4)ncn3)n2C)c(-c2cc(F)c3c(c2C)CCCO3)c1[C@H](OC(C)(C)C)C(=O)O (racemic) [Example 364] | 10.9 nM
6 | Cc1nc2c(cc(-c3nc(N4C[C@@H](C)N[C@@H](C)C4)ns3)n2C)c(-c2cc(F)c3c(c2C)CCCO3)c1[C@H](OC(C)(C)C)C(=O)O (racemic) [Example 397] | 13.1 nM
7 | Cc1nc2c(cc(-c3csc(N4C[C@@H](C)O[C@@H](C)C4)n3)n2C)c(-c2cc(F)c3c(c2C)CCCO3)c1[C@H](OC(C)(C)C)C(=O)O (racemic) [Example 409] | 13.4 nM
8 | Cc1nc2c(cc(-c3ccnc(N4CC(N5CCOCC5)C4)c3)n2C)c(-c2cc(F)c3c(c2C)CCCO3)c1[C@H](OC(C)(C)C)C(=O)O [Example 2, (2S)-2-(tert-butoxy)-2-[4-(8-fluoro-5-methyl-3,4-dihydro-2H-1-benzopyran-6-yl)-1,6-dimethyl-2-{2-[3-(morpholin-4-yl)azetidin-1-yl]pyridin-4-yl}-1H-pyrrolo[2,3-b]pyridin-5-yl]acetic acid] | 15.6 nM
9 | Cc1nc2c(cc(-c3ccnc(-c4ccc5c(cnn5C)c4)c3)n2C)c(-c2ccc(Cl)cc2)c1[C@H](OC(C)(C)C)C(=O)O [Example 15, (2S)-2-(tert-butoxy)-2-[4-(4-chlorophenyl)-1,6-dimethyl-2-[2-(1-methyl-1H-indazol-5-yl)pyridin-4-yl]-1H-pyrrolo[2,3-b]pyridin-5-yl]acetic acid] | 13.7 nM
10 | CCCn1cc(-c2cc(-c3cc4c(-c5cc(F)c6c(c5C)CCCO6)c([C@H](OC(C)(C)C)C(=O)O)c(C)nc4n3C)ccn2)cn1 [Example 44] | 14 nM
11 | Cc1nc2c(cc(-c3ccnc(-c4ccc5c(c4)ncn5C)c3)n2C)c(-c2cc(F)c3c(c2C)CCCO3)c1[C@H](OC(C)(C)C)C(=O)O [Example 51] | 4 nM
12 | Cc1nc2c(cc(-c3ccnc(-c4ccc5nn(C)nc5c4)c3)n2C)c(-c2cc(F)c3c(c2C)CCCO3)c1[C@H](OC(C)(C)C)C(=O)O [Example 61] | 2.6 nM
13 | Cc1nc2c(cc(-c3ccnc(-c4ccc5nn(C6COC6)cc5c4)c3)n2C)c(-c2cc(F)c3c(c2C)CCCO3)c1[C@H](OC(C)(C)C)C(=O)O [Example 64] | 2.8 nM
14 | Cc1nc2c(cc(-c3ccnc(-c4ccc5c(cnn5C5COC5)c4)c3)n2C)c(-c2cc(F)c3c(c2C)CCCO3)c1[C@H](OC(C)(C)C)C(=O)O [Example 65] | 2.4 nM
15 | Cc1nc2c(cc(-c3cccc(-c4ccc5c(cnn5C)c4)n3)n2C)c(-c2cc(F)c3c(c2C)CCCO3)c1[C@H](OC(C)(C)C)C(=O)O [Example 71] | 23.4 nM
16 | Cc1cc(COc2cc(-c3cc4c(-c5cc(F)c6c(c5C)CCCO6)c([C@H](OC(C)(C)C)C(=O)O)c(C)nc4n3C)ccn2)ccn1 [Example 73] | 3.8 nM
17 | Cc1nc2c(cc(-c3ccnc(CNc4ncc(F)cn4)c3)n2C)c(-c2cc(F)c3c(c2C)CCCO3)c1[C@H](OC(C)(C)C)C(=O)O [Example 74] | 56.5 nM
18 | Cc1nc2c(cc(-c3ccnc(OC4CCN(Cc5ccccc5)CC4)c3)n2C)c(-c2cc(F)c3c(c2C)CCCO3)c1[C@H](OC(C)(C)C)C(=O)O [Example 75] | 100 nM
19 | Cc1nc2c(cc(-c3ccnc(CNc4ccccn4)c3)n2C)c(-c2cc(F)c3c(c2C)CCCO3)c1[C@H](OC(C)(C)C)C(=O)O [Example 76] | 112 nM
20 | Cc1nc2c(cc(-c3ccnc(CN(C)c4ccccn4)c3)n2C)c(-c2cc(F)c3c(c2C)CCCO3)c1[C@H](OC(C)(C)C)C(=O)O [Example 77] | 41 nM
21 | Cc1nc2c(cc(-c3ccnc(-c4ccc5c(c4)OCCO5)c3)n2C)c(-c2cc(F)c3c(c2C)CCCO3)c1[C@H](OC(C)(C)C)C(=O)O [Example 78] | 5.8 nM
22 | Cc1nc2c(cc(-c3ccnc(N4CCCN(C(=O)C5CCOC5)CC4)c3)n2C)c(-c2cc(F)c3c(c2C)CCCO3)c1[C@H](OC(C)(C)C)C(=O)O (some centres unmarked) [Example 105] | 54.6 nM
23 | Cc1nc2c(cc(-c3ccnc(N4CCC(Oc5ccccc5)C4)c3)n2C)c(-c2cc(F)c3c(c2C)CCCO3)c1[C@H](OC(C)(C)C)C(=O)O (some centres unmarked) [Example 107] | 44.5 nM
24 | CCN(CC)C1C[C@H]2CC[C@@H](C1)N2c1cc(-c2cc3c(-c4cc(F)c5c(c4C)CCCO5)c([C@H](OC(C)(C)C)C(=O)O)c(C)nc3n2C)ccn1 (some centres unmarked) [Example 110] | 45 nM

Row | SMILES | IC50
25 | Cc1nc2c(cc(-c3ccnc(NC4C[C@H]5CC[C@@H](C4)N5C)c3)n2C)c(-c2cc(F)c3c(c2C)CCCO3)c1[C@H](OC(C)(C)C)C(=O)O (some centres unmarked) [Example 112] | 1330 nM
26 | Cc1nc2c(cc(-c3ccnc(N4CCN5CCCC5C4)c3)n2C)c(-c2cc(F)c3c(c2C)CCCO3)c1[C@H](OC(C)(C)C)C(=O)O (some centres unmarked) [Example 116] | 40 nM
27 | Cc1nc2c(cc(-c3ccnc(N4CC5CN(C6COC6)CC5C4)c3)n2C)c(-c2cc(F)c3c(c2C)CCCO3)c1[C@H](OC(C)(C)C)C(=O)O (some centres unmarked) [Example 121] | 15 nM
28 | Cc1nc2c(cc(-c3ccnc(N4CCN5CCC4C5)c3)n2C)c(-c2cc(F)c3c(c2C)CCCO3)c1[C@H](OC(C)(C)C)C(=O)O (some centres unmarked) [Example 123] | 164 nM
29 | Cc1nc2c(cc(-c3ccnc(N4CCCN5CCCC5C4)c3)n2C)c(-c2cc(F)c3c(c2C)CCCO3)c1[C@H](OC(C)(C)C)C(=O)O (some centres unmarked) [Example 124] | 32.5 nM
30 | Cc1nc2c(cc(-c3ccnc(N4CCCN(C5CCOC5)CC4)c3)n2C)c(-c2cc(F)c3c(c2C)CCCO3)c1[C@H](OC(C)(C)C)C(=O)O (some centres unmarked) [Example 126] | 22.5 nM
31 | Cc1nc2c(cc(-c3cncc(-c4ccc5c(cnn5C)c4)c3)n2C)c(-c2cc(F)c3c(c2C)CCCO3)c1[C@H](OC(C)(C)C)C(=O)O [Example 138] | 1.5 nM
32 | Cc1nc2c(cc(-c3cc(-c4ccc5c(cnn5C)c4)ccn3)n2C)c(-c2cc(F)c3c(c2C)CCCO3)c1[C@H](OC(C)(C)C)C(=O)O [Example 139] | 2 nM
33 | Cc1nc2c(cc(-c3cc(-c4ccc5c(cnn5C)c4)[nH]n3)n2C)c(-c2cc(F)c3c(c2C)CCCO3)c1[C@H](OC(C)(C)C)C(=O)O [Example 140] | 14.1 nM
34 | Cc1nc2c(cc(-c3nc(-c4ccc5c(cnn5C)c4)nn3C)n2C)c(-c2cc(F)c3c(c2C)CCCO3)c1[C@H](OC(C)(C)C)C(=O)O [Example 141] | 149 nM
35 | Cc1nc2c(cc(-c3cc(-c4ccc5c(cnn5C)c4)ncn3)n2C)c(-c2cc(F)c3c(c2C)CCCO3)c1[C@H](OC(C)(C)C)C(=O)O [Example 142] | 1.8 nM
36 | Cc1nc2c(cc(-c3cnc(-c4ccc5c(cnn5C)c4)s3)n2C)c(-c2cc(F)c3c(c2C)CCCO3)c1[C@H](OC(C)(C)C)C(=O)O [Example 143] | 12.5 nM
37 | Cc1nc2c(cc(C(=O)N3CCCN(C4COC4)CC3)n2C)c(-c2cc(F)c3c(c2C)CCCO3)c1[C@H](OC(C)(C)C)C(=O)O [Example 162] | 3650 nM
38 | Cc1nc2c(cc(C(=O)Nc3ccc4c(cnn4C)c3)n2C)c(-c2cc(F)c3c(c2C)CCCO3)c1[C@H](OC(C)(C)C)C(=O)O [Example 163] | 43 nM
39 | Cc1nc2c(cc(C(=O)N3CCC(Oc4ccc(C#N)cc4)CC3)n2C)c(-c2cc(F)c3c(c2C)CCCO3)c1[C@H](OC(C)(C)C)C(=O)O [Example 164] | 42.2 nM
40 | Cc1nc2c(cc(C(=O)N3CCC(NC(=O)c4cncn4C)CC3)n2C)c(-c2cc(F)c3c(c2C)CCCO3)c1[C@H](OC(C)(C)C)C(=O)O [Example 165] | 50000 nM
41 | Cc1nc2c(cc(C(=O)N3CCn4cnnc4C3)n2C)c(-c2cc(F)c3c(c2C)CCCO3)c1[C@H](OC(C)(C)C)C(=O)O [Example 166] | 50000 nM
42 | Cc1nc2c(cc(C(=O)N3CCc4ccc(S(=O)(=O)NC(C)C)cc4C3)n2C)c(-c2cc(F)c3c(c2C)CCCO3)c1[C@H](OC(C)(C)C)C(=O)O [Example 167] | 357 nM
43 | Cc1nc2c(cc(CNC(=O)N3CCCN(C4COC4)CC3)n2C)c(-c2cc(F)c3c(c2C)CCCO3)c1[C@H](OC(C)(C)C)C(=O)O [Example 168] | 12600 nM
44 | Cc1nc2c(cc(C(=O)N3CCN(c4ccncc4)CC3)n2C)c(-c2cc(F)c3c(c2C)CCCO3)c1[C@H](OC(C)(C)C)C(=O)O [Example 169] | 1240 nM
45 | Cc1nc2c(cc(C(=O)N3CCC(c4ccccc4)CC3)n2C)c(-c2cc(F)c3c(c2C)CCCO3)c1[C@H](OC(C)(C)C)C(=O)O [Example 170] | 4.2 nM
46 | Cc1nc2c(cc(C(=O)N3CCC(c4ccncc4)CC3)n2C)c(-c2cc(F)c3c(c2C)CCCO3)c1[C@H](OC(C)(C)C)C(=O)O [Example 171] | 32.6 nM
47 | Cc1nc2c(cc(C(=O)N3CCN(c4ccccc4)CC3)n2C)c(-c2cc(F)c3c(c2C)CCCO3)c1[C@H](OC(C)(C)C)C(=O)O [Example 172] | 5.9 nM
